Source: PubChem BioAssay AID248 (DTP/NCI, 2004)
“And” between values parts separate entries of the source, which are not always exact repeats. Equal entries are not always repeated. Toxic doses and inconclusive results are not listed.

System: L1210 leukemia ip in BDF1 mice, survival T/C
Assay: NCI In Vivo Anticancer Drug Screen. Data for tumor model L1210 Leukemia (intraperitoneal) in B6D2F1 (BDF1) mice
Conditions: endpoint: mean survival time, higher = longer survival
Procedure, shortened: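 In this screen, tumor-bearing mice given compound are compared to those given vehicle, and their survival values are reported as a treated-to-control quotient.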

[1] = dose: 100.0 mg/kg/injection, schedule: Q01DX009 (ip), vehicle: saline
[2] = dose: 100.0 mg/kg/injection, schedule: Q04DX003 (ip), vehicle: saline
[3] = dose: 200.0 mg/kg/injection, schedule: Q01DX009 (ip), vehicle: saline
[4] = dose: 200.0 mg/kg/injection, schedule: Q04DX003 (ip), vehicle: saline
[5] = dose: 400.0 mg/kg/injection, schedule: Q01DX009 (ip), vehicle: saline
[6] = dose: 400.0 mg/kg/injection, schedule: Q04DX003 (ip), vehicle: saline
[7] = dose: 100.0 mg/kg/injection, schedule: Q01DX001 (ip), vehicle: carboxymethylcellulose (CMC)
[8] = dose: 100.0 mg/kg/injection, schedule: Q04DX003 (ip), vehicle: saline with Tween-80
[9] = dose: 200.0 mg/kg/injection, schedule: Q04DX003 (ip), vehicle: saline with Tween-80
[10] = dose: 400.0 mg/kg/injection, schedule: Q04DX003 (ip), vehicle: saline with Tween-80
[11] = dose: 100.0 mg/kg/injection, schedule: Q01DX001 (ip), vehicle: saline with Tween-80
[12] = dose: 200.0 mg/kg/injection, schedule: Q01DX001 (ip), vehicle: saline with Tween-80
[13] = dose: 200.0 mg/kg/injection, schedule: Q01DX009 (ip), vehicle: saline with Tween-80
[14] = dose: 400.0 mg/kg/injection, schedule: Q01DX001 (ip), vehicle: saline with Tween-80
[15] = dose: 100.0 mg/kg/injection, schedule: Q01DX009 (ip), vehicle: saline with Tween-80
[16] = dose: 400.0 mg/kg/injection, schedule: Q01DX009 (ip), vehicle: saline with Tween-80
[17] = dose: 100.0 mg/kg/injection, schedule: Q04DX002 (ip), vehicle: saline with Tween-80
[18] = dose: 200.0 mg/kg/injection, schedule: Q04DX002 (ip), vehicle: saline with Tween-80
[19] = dose: 400.0 mg/kg/injection, schedule: Q04DX002 (ip), vehicle: saline with Tween-80
[20] = dose: 12.5 mg/kg/injection, schedule: Q01DX009 (ip), vehicle: saline with Tween-80
[21] = dose: 25.0 mg/kg/injection, schedule: Q01DX009 (ip), vehicle: saline with Tween-80
[22] = dose: 100.0 mg/kg/injection, schedule: Q01DX001 (ip), vehicle: saline
[23] = dose: 200.0 mg/kg/injection, schedule: Q01DX001 (ip), vehicle: saline
[24] = dose: 400.0 mg/kg/injection, schedule: Q01DX001 (ip), vehicle: saline
[25] = dose: 100.0 mg/kg/injection, schedule: Q04DX003 (ip), vehicle: Klucel (hydroxypropylcellulose) (HPC)

C[N+]1=COCC1(C)C
T/C [1]: 104 % of control
T/C [2]: 99 % of control
T/C [3]: 101 % of control
T/C [4]: 94 % of control
T/C [5]: 115 % of control
T/C [6]: 97 % of control

CNc1ccc(/C=C2\C=Cc3ccccc32)cc1Cl
T/C [7]: 97 % of control
T/C (dose: 400.0 mg/kg/injection, schedule: Q01DX001 (ip), vehicle: carboxymethylcellulose (CMC)): 92 % of control

O=C1Nc2ccc(Br)cc2C1=Nc1ccc2c(c1)OCO2
T/C (dose: 100.0 mg/kg/injection, schedule: Q04DX002 (ip), vehicle: Klucel (hydroxypropylcellulose) (HPC)): 100 % of control
T/C (dose: 200.0 mg/kg/injection, schedule: Q04DX002 (ip), vehicle: Klucel (hydroxypropylcellulose) (HPC)): 95 % of control
T/C (dose: 400.0 mg/kg/injection, schedule: Q04DX002 (ip), vehicle: Klucel (hydroxypropylcellulose) (HPC)): 100 % of control

CCC(C(=O)O)N1C(=O)C2C3C=CC(C3)C2C1=O (stereo not drawn)
T/C [8]: 94 % of control and 96 % of control
T/C [9]: 96 % of control and 105 % of control
T/C [10]: 105 % of control

CCOC(=O)c1cnc(SC)nc1Nc1cccc(C)c1
T/C [8]: 86 % of control
T/C [9]: 91 % of control
T/C [10]: 86 % of control

CC(=O)Nn1cnc2c(=S)nc[nH]c21
T/C (dose: 20.0 mg/kg/injection, schedule: Q01DX009 (ip), vehicle: saline with Tween-80): 108 % of control
T/C [11]: 101 % of control
T/C (dose: 177.0 mg/kg/injection, schedule: Q01DX001 (ip), vehicle: saline with Tween-80): 106 % of control
T/C [12]: 110 % of control
T/C [13]: 93 % of control
T/C (dose: 266.0 mg/kg/injection, schedule: Q01DX001 (ip), vehicle: saline with Tween-80): 154 % of control
T/C [14]: 118 % of control

ClC1=NC(c2ccccc2)N2C(Cl)C12 (stereo not drawn)
T/C [11]: 103 % of control
T/C [15]: 104 % of control
T/C [12]: 95 % of control
T/C [13]: 98 % of control
T/C [14]: 95 % of control
T/C [16]: 104 % of control

COc1ccc(Cl)cc1NC(=O)Oc1c(C)cccc1C
T/C [11]: 106 % of control
T/C [15]: 96 % of control
T/C [17]: 95 % of control and 89 % of control
T/C [12]: 90 % of control
T/C [13]: 98 % of control
T/C [18]: 95 % of control and 97 % of control
T/C [14]: 96 % of control
T/C [16]: 102 % of control
T/C [19]: 95 % of control and 98 % of control

CCOc1ccc(Br)cc1
T/C [11]: 91 % of control
T/C [15]: 95 % of control and 105 % of control
T/C [17]: 97 % of control and 101 % of control
T/C [8]: 105 % of control
T/C [12]: 87 % of control
T/C [13]: 105 % of control and 92 % of control
T/C [18]: 119 % of control and 92 % of control
T/C [9]: 94 % of control
T/C [14]: 89 % of control
T/C [19]: 99 % of control and 91 % of control
T/C [10]: 101 % of control

Cc1cccc(C(=O)O)n1
T/C [1]: 103 % of control
T/C [2]: 104 % of control
T/C [3]: 113 % of control
T/C [4]: 101 % of control
T/C [5]: 93 % of control
T/C [6]: 95 % of control

COC(=O)C(Br)c1ccc([N+](=O)[O-])cc1 (stereo not drawn)
T/C [20]: 101 % of control
T/C (dose: 12.5 mg/kg/injection, schedule: Q04DX003 (ip), vehicle: saline): 98 % of control
T/C [21]: 104 % of control
T/C (dose: 25.0 mg/kg/injection, schedule: Q04DX003 (ip), vehicle: saline): 101 % of control
T/C (dose: 50.0 mg/kg/injection, schedule: Q04DX003 (ip), vehicle: saline): 93 % of control

O=c1oc2ccccc2cc1P(=O)(O)O
T/C (dose: 50.0 mg/kg/injection, schedule: Q01DX001 (ip), vehicle: saline): 91 % of control
T/C [22]: 95 % of control
T/C [23]: 95 % of control
T/C [24]: 97 % of control

CCn1cnc2c(SC(C)C)ncnc21
T/C (dose: 16.0 mg/kg/injection, schedule: Q01DX Z (ip), vehicle: carboxymethylcellulose (CMC)): 95 % of control
T/C (dose: 31.0 mg/kg/injection, schedule: Q01DX Z (ip), vehicle: carboxymethylcellulose (CMC)): 101 % of control
T/C (dose: 62.0 mg/kg/injection, schedule: Q01DX Z (ip), vehicle: carboxymethylcellulose (CMC)): 107 % of control

O=C1C(n2ccc(=O)[nH]c2=O)CCN1CCO (stereo not drawn)
T/C [1]: 105 % of control
T/C [3]: 100 % of control
T/C [5]: 97 % of control

COc1ccc(-c2c(N)nc(=S)[nH]c2C(=O)O)cc1
T/C (dose: 100.0 mg/kg/injection, schedule: Q01DX009 (ip), vehicle: Klucel (hydroxypropylcellulose) (HPC)): 97 % of control
T/C [25]: 100 % of control
T/C (dose: 200.0 mg/kg/injection, schedule: Q01DX009 (ip), vehicle: Klucel (hydroxypropylcellulose) (HPC)): 94 % of control
T/C (dose: 200.0 mg/kg/injection, schedule: Q04DX003 (ip), vehicle: Klucel (hydroxypropylcellulose) (HPC)): 101 % of control
T/C (dose: 400.0 mg/kg/injection, schedule: Q01DX009 (ip), vehicle: Klucel (hydroxypropylcellulose) (HPC)): 103 % of control
T/C (dose: 400.0 mg/kg/injection, schedule: Q04DX003 (ip), vehicle: Klucel (hydroxypropylcellulose) (HPC)): 106 % of control

CN(C)CCNC(=O)CN
T/C [22]: 102 % of control
T/C [23]: 107 % of control
T/C [24]: 107 % of control

O=C(Nc1ccc2c(c1)OCO2)O/N=C\c1cccnc1
T/C [20]: 97 % of control
T/C [21]: 105 % of control
T/C (dose: 50.0 mg/kg/injection, schedule: Q01DX009 (ip), vehicle: saline with Tween-80): 100 % of control
T/C [15]: 86 % of control
T/C [8]: 100 % of control
T/C [13]: 91 % of control
T/C [9]: 113 % of control
T/C [10]: 111 % of control

CC1(C)N=C(N)N=C(N)N1c1cccc(OCCCOc2ccc([N+](=O)[O-])cc2)c1
T/C [22]: 91 % of control

COc1ccccc1NC(=O)N(CCCl)N=O
T/C (dose: 0.8 mg/kg/injection, schedule: Q01DX001 (ip), vehicle: carboxymethylcellulose (CMC)): 110 % of control
T/C (dose: 1.5 mg/kg/injection, schedule: Q01DX001 (ip), vehicle: carboxymethylcellulose (CMC)): 106 % of control
T/C (dose: 1.5 mg/kg/injection, schedule: Q01DX009 (ip), vehicle: carboxymethylcellulose (CMC)): 97 % of control
T/C (dose: 3.0 mg/kg/injection, schedule: Q01DX001 (ip), vehicle: carboxymethylcellulose (CMC)): 108 % of control
T/C (dose: 3.5 mg/kg/injection, schedule: Q01DX009 (ip), vehicle: carboxymethylcellulose (CMC)): 118 % of control and 124 % of control
T/C (dose: 5.3 mg/kg/injection, schedule: Q01DX009 (ip), vehicle: carboxymethylcellulose (CMC)): 165 % of control
T/C (dose: 6.0 mg/kg/injection, schedule: Q01DX001 (ip), vehicle: carboxymethylcellulose (CMC)): 117 % of control
T/C (dose: 8.0 mg/kg/injection, schedule: Q01DX009 (ip), vehicle: carboxymethylcellulose (CMC)): 166 % of control and 236 % of control
T/C (dose: 12.0 mg/kg/injection, schedule: Q01DX009 (ip), vehicle: carboxymethylcellulose (CMC)): 214 % of control and 247 % of control
T/C (dose: 18.0 mg/kg/injection, schedule: Q01DX009 (ip), vehicle: carboxymethylcellulose (CMC)): 116 % of control and 123 % of control
T/C [7]: 100 % of control

CC(C)(C)N1CC1C(=O)Sc1ccccc1 (stereo not drawn)
T/C (dose: 25.0 mg/kg/injection, schedule: Q04DX003 (ip), vehicle: Klucel (hydroxypropylcellulose) (HPC)): 102 % of control
T/C (dose: 50.0 mg/kg/injection, schedule: Q04DX003 (ip), vehicle: Klucel (hydroxypropylcellulose) (HPC)): 101 % of control
T/C [25]: 109 % of control
